Experimental data taken from article PMC9112550, “Optimization of the antimicrobial peptide Bac7 by deep mutational scanning” (BMC Biology, 2022).
Several values for one entry are separate records, joined by “and”; a condition that tells them apart may be missing. Identical values can stand only once. Where no end group is shown, it is not given here.

Assays:
[1] = system: E. coli ATCC 25922; assay type: cell-based; conditions: E. coli ATCC 25922 quality control strain; MHB II; 18 h, 37°C; averaged (n>3)
Method: (§1) Bacterial cells were grown in cation-adjusted Mueller Hinton Broth (MHB II) overnight to stationary phase. The cultures were then supplemented with 200 g l^−1 glycerol, aliquoted, and frozen at −80°C. […] The purified peptides were thawed and the concentration was determined by RP-HPLC as described before. The peptides were diluted with sterile water to 4-fold the desired assays starting concentration and to a final volume of 50 μl. […] The first well of each MIC dilution series was filled with 20 μl of 2-fold concentrated MHB II, wells 2–11 with 20 μl of MHB II, and well 12 with 40 μl MHB II (sterility control). Next, 20 μl of the peptide dilution was added to the first well, mixed, and a log2-serial dilution was performed from wells 1 to 10 (20 μl transfer volume). Well 11 served as growth control (i.e., no peptide added). In the last step, 20 μl of the bacterial cell suspension was added to wells 1–11 either using the pipetting robot (E. coli TOP10, BW25113, BW25113 ΔsbmA, and ATCC 25922) or by manual pipetting (E. coli clinical isolates). The plates were sealed airtight and incubated for 18 h without shaking at 37°C before reading the OD using an Infinite 200 PRO plate reader (Tecan, Männedorf, CH). The MIC value corresponded to the concentration at which no growth of the bacterial strain was observed (< 5% of the OD value of the growth control) and was evaluated using a custom-written script in the programming language R. MIC values of E. coli TOP10, BW25113, BW25113 ΔsbmA, and ATCC 25922 were determined at least in biological triplicates. All MIC experiments were determined in technical replicate.

[2] = system: E. coli BW25113 ΔsbmA; assay type: cell-based
Method: as §1

[3] = system: E. coli BW25113; assay type: cell-based; conditions: E. coli BW25113 parental strain; MHB II; 18 h, 37°C; averaged (n>3)
Method: as §1

[4] = system: E. coli TOP10; assay type: cell-based; conditions: MHB II, 18 h, 37°C, averaged (n>3), <5% of OD of growth control
Method: as §1

[5] = system: E. coli clinical isolates; assay type: cell-based; conditions: clinical isolates of E. coli (n=45) including MDR (ESBL, CRE); MHB II; 18 h, 37°C
Method: as §1

[6] = system: E. coli TOP10; test: Membrane damage assay in MHB II (GFP loss, PI uptake); assay type: cell-based; conditions: at the MIC up to 8-fold higher concentrations, n = 3
[7] = system: mouse red blood cells; test: Hemolysis assay; assay type: cell-based; conditions: 1 h, 37°C, DPBS, relative to Triton-X100 lysis control, triplicates
Method: Mouse blood was obtained from the ETH Phenomics Center. The erythrocytes were isolated by centrifugation at 500 × g for 10 min and removal of the blood plasma. The cells were washed three times by gently resuspending them in an equal volume of DPBS followed by centrifugation. After the last resuspension, the cells were diluted 1:50 in DPBS. For the hemolysis assay, a log2-serial dilution of each peptide was prepared as described for the MIC but using DPBS and 96-well plates (U-bottom, PP, 650201, Greiner) with a final volume of 100 μl. As lysis control, 2.5% Triton-X100 in DPBS was used in well 10, well 11 served as non-treated control (no peptide added), and well 12 as blank. To each well of the dilution plate, 100 μl of the red blood cells suspension was added. The plate was incubated for 1 h at 37°C. After incubation, the plate was centrifuged at 500 × g for 10 min and 100 μl of the supernatant was transferred to a clean 96-well plate (F-bottom, PS, 655101, Greiner). The absorbance was measured at 540 nm using an Infinite M1000 PRO plate reader (Tecan) and corrected by the measurements from the untreated wells. The lysis of each peptide concentration was expressed relative to the lysis control (set as 100% lysis). The hemolysis assay was performed in biological triplicates.

[8] = system: HeLa cells; test: In vitro toxicity assay (MTT), HeLa; assay type: cell-based, human
Method: (§2) HeLa epithelioid cervix carcinoma cells (originally purchased: 93021013, Sigma Aldrich) and HEK 293 human embryonic kidney (originally purchased: 85120602, Sigma Aldrich) were routinely cultivated in Dulbecco’s MEM high glucose (DMEM, with L-glutamine, without phenol red, 1-26P32, Bioconcept, Allschwil, CH), supplemented with 10% fetal bovine serum (heat inactivated, sterile filtered, F9665, Sigma Aldrich) and 100 IU ml^−1/100 μg ml^−1 Penicillin/streptomycin (4-01F00, Bioconcept) at 37°C with 5% CO2. Cells were split at a confluency of ≤ 90% (every 3 to 4 days) and maintained for max. 10 passages before a fresh aliquot of cells were seeded. […] The cell concentration was determined using a Countess 2 device (Thermo Fisher Scientific) and approx. 5000 (HeLa) or 25,000 (HEK 293) cells were seeded into wells of a 96-well plate (F-bottom, PS, 655180, Greiner) together with 100 μl DMEM. […] For each dilution series, the IC50 value was determined by computing a weighted n-parameters logistic regression using the “nplr” package in R (https://CRAN.R-project.org/package=nplr). […]

[9] = system: HEK 293 cells; assay type: cell-based, human; conditions: MTT, 24 h, 37°C, triplicates, read-out: Toxicity IC50
Method: as §2

[10] = system: bacteria; conditions: cited from earlier work
Excerpt: One of the most intensively researched proline-rich AMPs is bactenecin-7 (Bac7). It is a 60 amino acid long linear peptide that was first isolated from bovine neutrophils. […] Measuring the antimicrobial activity of heavily mutated variants was valuable to determine the sequence-activity relationship of Bac7_1-23 because (i) the activity of specific amino acid res ... || Bac7PS excelled over Bac7_1-23 in terms of antimicrobial activity against clinical isolates including MDR bacteria and a decreased dependency on the SbmA transporter (Fig. 4a; Table 2). […] We mainly attribute the activity gain to the increased ability to penetrate membranes, which was accompanied by a slight increase in membrane damage at higher concentrations compared to Bac7_1-23 (Fig. 4b; Additional file 1 ...

[11] = system: bacterial membranes; conditions: cited from earlier work
Method: We next investigated whether an increased propensity to damage membranes could be the reason for the improved antimicrobial activity of Bac7PS. Membrane damage is the most frequent way AMPs kill bacteria and is often considered the reason for high toxicity against eukaryotic cells. […] Consequently, we investigated if Bac7PS had acquired a tendency to damage membranes, which could imply a greater risk for systemic human applications. Cell damage was assessed by measuring leakage of green fluorescent protein (GFP), ex ...

Row | Substance | MIC [1] | antimicrobial activity against the SbmA transporter knockout strain [2] | MIC ([2]; MHB II, 18 h, 37°C, averaged (n>3)) | MIC [3] | MIC [4] | MIC50 [5] | PI-positive cells [6] | cells that retained GFP levels [6] | Hemolysis of mouse red blood cells ([7]; 1xMIC (MIC measured for E. coli ATCC 25922)) | Hemolysis of mouse red blood cells ([7]; 4xMIC (MIC measured for E. coli ATCC 25922)) | IC50 ([8]; HeLa, MTT, 24 h, 37°C, triplicates) | therapeutic index (TI), Toxicity/MIC ([8]; IC50 HeLa divided by MIC50 from clinical isolates) | IC50 [9] | activity against species of Gram-negative Enterobacteriaceae [10] | damage of bacterial membranes at its MIC [11]
1 | RRIRPRPPRLPRPRPRPLPFPRP [Bac7_1-23] | 2.8 µM | largely inactive | 52.1 µM | 7.4 µM | 4.6 µM | 7.5 µM | ~ 1% | ~ 99% | < 4% and 2.1% | < 7% and 6.4% | 1460 µM | 195 | 1970 µM | – | –
2 | Bac7: 60 amino acid long linear peptide first isolated from bovine neutrophils | – | – | – | – | – | – | – | – | – | – | – | – | – | high activity | not damage bacterial membranes
